# Laboratory results from patent US11291674B2 (CALITHERA BIOSCIENCES, INC., priority 2016, dated 2022).
# Assays:
# [1] = target: T1, Recombinant murine inducible NOS (Mus musculus, UniProt P29477); experiment: NOS activity assay, inducible NOS; format: biochemical; details: 50 μM arginase inhibitor
# T1 construct: Eurofins/Cerep Panlabs (contract laboratory that ran the assay)
# Source text: Nitric oxide (NO) synthase (NOS) activity assays.
# Standard deviations are indicated in parentheses. […] N/A=not applicable.
# [2] = test system: cancer patient granulocyte-mediated suppression of T cell proliferation; experiment: T cell proliferation in media conditioned by granulocytes of a head and neck cancer patient; format: cell-based, human
# Procedure: T cell/myeloid cell co-culture assays. […] Granulocytes were incubated for 48 h at 37° C., during which time they spontaneously activate as determined by surface expression of CD66b and scatter properties. T cells isolated from the same donor using a pan-T cell isolation kit (Stemcell Technologies) were loaded with CFSE and plated with immobilized anti-CD3 and soluble anti-CD28 in the presence of the aged granulocytes. The cells were co-cultured at several ratios of granulocytes to T cells as indicated or at a fixed ratio of 4 T cells to 1 granulocyte. Co-cultures were incubated for 3-4 days, at which time media were analyzed for L-arginine and L-ornithine by mass spectrometry and T cell proliferation was determined by flow cytometry. Granulocytic MDSC (G-MDSC) or granulocytes from cancer patients were isolated from whole blood purchased from Conversant Biologics. G-MDSCs were purified from the PBMC layer of a Ficoll gradient by positive selection for CD66b^+ cells. Granulocytes were purified from the RBC layer of a Ficoll gradient using Hetasep (Stemcell Technologies). G-MDSC or granulocytes were incubated in co-culture media containing 100 μM L-arginine for 48 h, at which time the cells were removed and the G-MDSC- or granulocyte-conditioned media were used for incubating healthy donor CFSE-loaded T cells on immobilized anti-CD3/soluble anti-CD28 for 3-4 days. Cytokines were quantified in the media from T cell co-culture assays using the Cytometric Bead Array kit according to the manufacturer's instructions (BD Biosciences).
# [3] = test system: B16 cell line; experiment: Cytotoxicity assay (CellTiterGlo), B16; format: cell-based, murine; details: 1 mM arginase inhibitor, 72 h
# Procedure: Cytotoxicity assays. […] Cytotoxicity was assayed by the addition of CellTiterGlo reagent according to the manufacturer's instructions (Promega, Madison, Wis.) followed by […] quantification on a Molecular Devices plate reader (Sunnyvale, Calif.).
# [4] = test system: LLC tumors; experiment: LLC tumors in mice with conditional Arg1 deletion in the myeloid lineage; format: in vivo, mouse; details: 100 mg/kg every 12 h for 14 days
# Source text: Conditional Arg1 deleted mice. Arg1 floxed mice were crossed to the Tie2-Cre deleter strain (The Jackson Laboratory) as previously described. Experimental mice were generated from crossing Arg1^Flox/Flox; Tie2-Cre^+ males with Arg1^Flox/Flox; Tie2-Cre^+ females, with Cre negative littermates serving as wild-type controls. Mice were housed and used in accordance with protocols approved by the Institutional Animal Care and Use Committee at St. Jude Children's Research Hospital. LLC cells (1×10^6 per mouse) were injected s.c. in the flank region. […] Mice were euthanized, and tumors excised and weights recorded. Myeloid deletion of Arg1 was confirmed via western blotting of IL-4-stimulated bone marrow-derived macrophages for all animals.
# [5] = test system: B16 tumors; experiment: Adoptive T cell transfer study, B16 model; format: in vivo, mouse; details: compared to either single agent; all groups cyclophosphamide plus fludarabine
# Procedure: Adoptive T cell transfer studies. Activated gp100-specific CD8^+ (Pmel-1) T cells were generated as described in Ya et al. Briefly, splenocytes from Pmel-1 TCR transgenic mice were isolated, pulsed with 1 μM of murine gp10025-33 (Anaspec, Fremont, Calif.) and expanded for 1 week in the presence of 60 IU/mL recombinant human IL-2 (Peprotech, Rocky Hill, N.J.). Cells were >90% CD8^+Vβ13^+ T cells as determined by flow cytometry. C57BL/6 mice were inoculated s.c. with B16 tumor cells. […] On day 7, lymphopenia was induced by a non-myeloablative chemotherapy regimen of 250 mg/kg cyclophosphamide and 50 mg/kg fludarabine administered i.p. The chemotherapy regimen was administered to all groups. On day 9, mice were administered 1×10^6 Pmel-1 T cells intravenously (i.v.). Mice receiving Pmel-1 T cells also received recombinant human IL-2 (200,000 IU/dose) administered i.p. twice daily for 3 days starting the day of T cell transfer.
smiles,measurement,setting,value
C[C@H](N)C(=O)N1C[C@H](CCCB(O)O)[C@](N)(C(=O)O)C1 [arginase inhibitor],Inhibition of inducible NOS,[1],No inhibition
same,Secretion of interferon-γ and granzyme-B into the media,[2]; T cells in cancer patient granulocyte-conditioned media,restored secretion
same,Arginine depletion of the media,[2]; granulocytes of a head and neck cancer patient,arginine depletion was blocked
same,"T cell proliferation restored, of control levels",[2]; media conditioned by granulocytes of a head and neck cancer patient,79%
same,Growth inhibition of B16 cell line,[3],No growth inhibition
same,Tumor growth in Arg flox/flox; Tie2-Cre+ (ARG1 ΔM) animals,[4],no further reduction in tumor growth
same,"Tumor growth, combination with T cells specific for the PMEL tumor antigen",[5],significantly reduced tumor growth
